Measurements reported in patent US9890175B2, “Taxane compound, and preparation method and use thereof” (JIANGSU TASLY DIYI PHARMACEUTICAL CO., LTD., priority 2013, dated 2018).
Like-named read-outs stand apart in the source and are kept apart here.

How the values were obtained:
[1] = tested on: A549 non-small cell lung cancer; assay: MTT proliferation inhibition, A549; type: cell-based; conditions: Homo sapiens, A549, read-out: Proliferation inhibition rate, A549 Non-small cell lung cancer
Description: (§1) 1. Cytotoxicity Assay Using Human Tumor Cell Lines
(§2) Paclitaxel was used as the positive drug.

[2] = tested on: MDA-MB-436 breast cancer cells; assay: MTT proliferation inhibition, MDA-MB-436; type: cell-based; conditions: Homo sapiens, MDA-MB-436, read-out: Proliferation inhibition rate, MDA-MB-436 Breast cancer
Description: as §1, §2

[3] = tested on: A375 melanoma; assay: MTT proliferation inhibition, A375; type: cell-based; conditions: Homo sapiens, A-375, read-out: Proliferation inhibition rate, A375 Melanoma
Description: as §1, §2

[4] = tested on: B16 melanoma; assay: MTT proliferation inhibition, B16; type: cell-based; conditions: B16, read-out: Proliferation inhibition rate, B16 Melanoma
Description: as §1, §2

[5] = tested on: BGC-823 gastric cancer; assay: MTT proliferation inhibition, BGC-823; type: cell-based; conditions: Homo sapiens, BGC-823, read-out: Proliferation inhibition rate, BGC-823 Gastric cancer
Description: as §1, §2

[6] = tested on: LN-18; assay: MTT proliferation inhibition, LN-18; type: cell-based; conditions: Homo sapiens, LN-18, read-out: Proliferation inhibition rate, LN-18 Gastric canser
Description: as §1, §2

[7] = Caco-2 cell monolayer membrane transport assay (Papp and recovery); type: in vitro ADME; conditions: human, Caco-2, Caco-2, A-B
Description: Caco-2 Cell Monolayer Membrane Transport Assay
Human-derived colorectal adenocarcinoma cell line Caco-2 cell monolayer model was used to study the bidirectional transport of the target compounds from the apical (AP) side to the basolateral (BL) side and from BL side to AP side. HPLC was used for quantitative analysis to calculate transport parameters, apparent permeability coefficient (Papp) and the efflux ratio.

[8] = tested on: breast cancer cell line MCF-7; assay: IC50 on breast cancer cell line MCF-7; type: cell-based; conditions: Homo sapiens, MCF7, 72 h, read-out: MCF-7 (IC50, nM)
Description: From the activity evaluation data of the above-mentioned preliminary screen, it can be seen that the series of taxanes derivatives synthesized in the present invention have activity. Afterward, the compounds are investigated to examine their IC50 values on breast cancer cell line MCF-7. […] Experiments for each compound were independently repeated for three times and multiple holes were used in each experiment. The exposure time of drugs was 72 hours.

[9] = tested on: LNCaP prostate cancer; assay: MTT proliferation inhibition, LNCaP; type: cell-based; conditions: Homo sapiens, read-out: Proliferation inhibition rate, LNCaP Prostate cancer
Description: as §1, §2

[10] = tested on: HCT 116 colon cancer; assay: MTT proliferation inhibition, HCT 116; type: cell-based; conditions: Homo sapiens, HCT-116, read-out: Proliferation inhibition rate, HCT 116 Colon cancer
Description: as §1, §2

[11] = tested on: HL-60 leukemia; assay: MTT proliferation inhibition, HL-60; type: cell-based; conditions: Homo sapiens, HL-60, read-out: Proliferation inhibition rate, HL60 Leukemia
Description: as §1, §2

[12] = tested on: Du145 prostate cancer; assay: MTT proliferation inhibition, Du145; type: cell-based; conditions: Homo sapiens, DU-145, read-out: Proliferation inhibition rate, DU145 Prostate cancer
Description: as §1, §2

[13] = tested on: K562 leukemia; assay: MTT proliferation inhibition, K562; type: cell-based; conditions: Homo sapiens, K562, read-out: Proliferation inhibition rate, K562 Leukemia
Description: as §1, §2

[14] = tested on: Hela cervical cancer; assay: MTT proliferation inhibition, HeLa; type: cell-based; conditions: Homo sapiens, read-out: Proliferation inhibition rate, HeLa Uterin cancer
Description: as §1, §2

[15] = tested on: A2780 ovarian cancer; assay: MTT proliferation inhibition, A2780; type: cell-based; conditions: Homo sapiens, A2780, read-out: Proliferation inhibition rate, A2780 Ovarian cancer
Description: as §1, §2

[16] = tested on: MCF-7 breast cancer cells; assay: MTT proliferation inhibition, MCF-7; type: cell-based; conditions: Homo sapiens, MCF7, read-out: Proliferation inhibition rate, MCF-7 Breast cancer
Description: as §1, §2

[17] = tested on: HT-29 colon cancer; assay: MTT proliferation inhibition, HT-29; type: cell-based; conditions: Homo sapiens, HT-29, read-out: Proliferation inhibition rate, HT29 Colon cancer
Description: as §1, §2

[18] = tested on: NCI-H460 non-small cell lung cancer; assay: MTT proliferation inhibition, NCI-H460; type: cell-based; conditions: Homo sapiens, NCI-H460, read-out: Proliferation inhibition rate, NCI-H460 Non-small cell lung cancer
Description: as §1, §2

[19] = Mean, read-out: Recovery rate in mass, Mean
[20] = Sample-01, read-out: Papp A-B, Sample-01
[21] = Sample-01, read-out: Recovery rate in mass, Sample-01
[22] = Sample-02, read-out: Papp A-B, Sample-02
[23] = Sample-02, read-out: Recovery rate in mass, Sample-02

Row | SMILES | inhibition at 1 µM [1] | inhibition at 1 µM [2] | inhibition at 1 µM [3] | inhibition at 1 µM [4] | inhibition at 1 µM [5] | inhibition at 1 µM [6] | recovery [7, 19] | Papp A→B [7, 20] | recovery [7, 21] | Papp A→B [7, 22] | recovery [7, 23] | IC50 [8] | inhibition at 1 µM [9] | inhibition at 1 µM [10] | inhibition at 1 µM [11] | inhibition at 1 µM [12] | inhibition at 1 µM [13] | inhibition at 1 µM [14] | inhibition at 1 µM [15] | inhibition at 1 µM [16] | further results
1 | CO[C@H]1C(=O)[C@]2(C)[C@@H](OC)C[C@H]3OC[C@@]3(OC(C)=O)[C@H]2[C@H](OC(=O)c2ccccc2)[C@]23OC(=O)O[C@H]2[C@H](OC(=O)[C@H](O)[C@H](CC(C)C)NC(=O)OC(C)(C)C)C(C)=C1C3(C)C [PCMI-05] | 67.8% | 74.5% | 87.9% | 71.5% | 90.9% | 93.3% | 54.7% | 2.59 ×10⁻⁶ cm/s | 58.1% | 2.56 ×10⁻⁶ cm/s | 51.3% | 4.04 ± 0.18 nM | 81.6% | 58.7% | 97.2% | 83.9% | 91.4% | 99.5% | 94.6% | 84.9% | inhibition at 1 µM [17]: 87.9%; inhibition at 1 µM [18]: 82%
2 | CO[C@H]1C[C@H]2OC[C@@]2(OC(C)=O)[C@H]2[C@H](OC(=O)c3ccccc3)[C@]34OC(=O)O[C@H]3[C@H](OC(=O)[C@H](O)[C@@H](NC(=O)N(C)C)c3ccccc3)C(C)=C([C@@H](OC(=O)N(C)C)C(=O)[C@]12C)C4(C)C [PCMI-11] | 72.3% | 79% | 92.4% | 72.6% | 90.6% | 92.9% | 79.9% | 1.24 ×10⁻⁶ cm/s | 79.7% | 1.02 ×10⁻⁶ cm/s | 80.2% | 4.25 ± 0.06 nM | 86.5% | 64.3% | 97.9% | 87.2% | 92.1% | 99.6% | 94.6% | 82.4% | Papp A→B ([7]; Mean, read-out: Papp A-B, Mean): 1.13 ×10⁻⁶ cm/s; inhibition at 1 µM [17]: 85.9%; inhibition at 1 µM [18]: 82.2%
3 | COC(=O)O[C@H]1C[C@H]2OC[C@@]2(OC(C)=O)[C@H]2[C@H](OC(=O)c3ccccc3)[C@]34OC(=O)O[C@H]3[C@H](OC(=O)[C@H](O)[C@@H](NC(=O)OC(C)(C)C)c3ccccn3)C(C)=C([C@@H](OC)C(=O)[C@]12C)C4(C)C [PCMI-18] | 78.7% | 82.3% | 95.1% | 81.2% | 94.3% | 94.7% | 88.3% | 2.65 ×10⁻⁶ cm/s | 85.6% | 2.33 ×10⁻⁶ cm/s | 90.9% | 4.12 ± 0.16 nM | 84.6% | 68.3% | 97.8% | 89.7% | 94.5% | 98.8% | 95.7% | 96.2% | Papp A→B ([7]; Mean, read-out: Papp A-B, Mean): 2.49 ×10⁻⁶ cm/s; inhibition at 1 µM [17]: 85.2%; inhibition at 1 µM [18]: 88.6%
4 | CO[C@H]1C(=O)[C@]2(C)[C@@H](OC(=O)N(C)C)C[C@H]3OC[C@@]3(OC(C)=O)[C@H]2[C@H](OC(=O)c2ccccc2)[C@]23OC(=O)O[C@H]2[C@H](OC(=O)[C@H](O)[C@H](CC(C)C)NC(=O)OC(C)(C)C)C(C)=C1C3(C)C [PCMI-16] | 74.7% | 81.2% | 96.3% | 83.1% | 95.3% | 95.2% | 33.1% | 1.41 ×10⁻⁶ cm/s | 32.7% | 1.87 ×10⁻⁶ cm/s | 33.5% | 21.17 ± 0.21 nM | 86.8% | 67.1% | 97.8% | 91.4% | 95% | 102% | 96.1% | 97.2% | Papp A→B ([7]; Mean, read-out: Papp A-B, Mean): 1.64 ×10⁻⁶ cm/s; inhibition at 1 µM [17]: 89.2%; inhibition at 1 µM [18]: 87.2%
